Data reported in patent US8557875B2, “Gene transfer agent composition containing polyamidoamine dendron” (Public University Corporation Osaka Prefecture University, priority 2009, dated 2013).

Columns and labels:
[1] = test system: HeLa cells; test: Gene transfer evaluated by luciferase assay (Example 2); type: cell-based, human; settings: lipoplex with 1 μg plasmid DNA, various N/P ratios; FIG. 7 and FIG. 8
Experimental: HeLa cells derived from human cervical cancer were seeded in a 24-well dish at 5.0×10^4 cells per well, and cultured overnight at 37° C. in 0.5 ml of a DMEM medium containing 10% FBS. Then, the cells were washed twice with PBS containing 0.36 mM CaCl2 and 0.42 mM MgCl2 (PBS (+)). Next, 0.5 ml of a DMEM medium containing 10% FBS was added, and the cells were supplemented with a lipoplex (100 μl) containing 1 μg of plasmid DNA per well and incubated at 37° C. for 4 hours. Afterward, the cells were washed three times with PBS (+) to remove the lipoplex not incorporated into the cells. Then, 1 ml of a DMEM medium containing 10% FBS was added, and the cells were cultured at 37° C. for 40 hours.
The cells treated with the lipoplex and cultured for 40 hours were washed twice with PBS (+), and further washed once with PBS (−). […] The luciferase activity and the amount of protein in the resulting cell lysate were determined by luciferase assay and a Coomassie (Bradford) Protein Assay Kit (PIERCE). […] The luminescent substrate solution (20 μl) was mixed with a luminescent substrate liquid (95 μl) including luciferin (13.5 μg) and a 5 mg/ml albumin solution (5 ml), and subjected to measurement for 20 seconds with a Lumat LB9507 luminometer (Berthold Japan Co., Ltd.) for an amount of luminescence.

[2] = test system: COS-7; test: Gene transfer (GFP expression, luciferase activity) versus commercial agents (Example 5); type: cell-based; settings: COS-7 adherent cells; compared with Lipofectamine LTX and FuGENE HD
Experimental: (§1) pEGFP-C1 expressing a green fluorescent protein was used as a gene transfer plasmid; and adherent cells COS-7 and Hela-S3, and non-adherent cells K562, which were established cell lines, were used as target cells. Lipoplexes were individually prepared using DL-U2. Then, gene transfer was performed.
(COS7 cells: 2.0×10^4 cells/well·DMEM+10% FBS (Pe/St) 500 μl)
(§2) (i) A 20 mM Tris-HCl (pH 7.4) buffer was dispensed into three tubes at 35.5 μl (for NP ratio=6) for each of two tubes, and 23 μl (for NP ratio=8) for the remaining tube.
(§3) (ii) 1.0 μg of plasmid DNA (pCAG-GFP) was added to each of the three tubes prepared in step (i) at 2 μl (1.0 μg), and the contents were stirred.
(§4) (iii) A DL-U2 liposome solution was added to the three tubes prepared in step (ii) at 37.5 μl (N/P ratio=6) for each of two tubes, and 50 μl (N/P ratio=8) for the remaining tube.
(§5) (iv) 25 μl of an Opti-MEM (registered trademark) I Reduced-Serum Medium was further added, and the whole was thoroughly mixed and allowed to stand at room temperature for 5 minutes.
(v) 100 μl of the DL-plasmid DNA complex solution (N/P ratio=6) was added and mixed with the COS7 cells. […]
(§6) (vii) 48 hours later, luciferase activity was measured according to the protocol of the luciferase assay system (Promega, E1501) (relative values based on the activity of LTX defined as 1 were graphed).

[3] = test system: K562; test: as above; type: cell-based; settings: K562 non-adherent cells; compared with Lipofectamine LTX and FuGENE HD
Experimental: as §1, §2, §3, §4, §5
50 μl of the DL-plasmid DNA complex solution (N/P ratio=8) was added and mixed with the K562 cells. […]
as §6

[4] = test system: COS-7; test: Cytotoxic evaluation on gene transfer (Example 5); type: cell-based; settings: compared with Lipofectamine LTX and FuGENE HD
[5] = test system: K562; test: Cytotoxic evaluation on gene transfer (Example 5); type: cell-based; settings: compared with Lipofectamine LTX and FuGENE HD
[6] = test system: various types of cells; test: Transfection of various cell strains, GFP expression (Example 8); type: cell-based; settings: COS7, HeLa-S3, A549, U2OS, SKOV3, Balb3T3, CHO, Jurkat, K562; 48 hours
Experimental: 4 hours after the addition, the medium was replaced (however, the medium was not replaced for Jurkat, K562). […] It should be noted that experimental conditions not described in the table conformed to those of the other examples.

- gene transfer activity [2]: excellent gene transfer activity
- gene transfer activity [3]: excellent gene transfer activity
Compound: CCCCCCCC/C=C\CCCCCCCCN(CCCCCCCC/C=C\CCCCCCCC)CCC(=O)NCCN(CCC(=O)NCCN)CCC(=O)NCCN (racemic) [DL-G1-U2]
- gene transfer efficiency (luciferase activity) compared with G1 [1]: two times higher
- cytotoxicity [4]: lower cytotoxicity
- cytotoxicity [5]: lower cytotoxicity
- gene transfer into various types of cells [6]: allowed the gene to be efficiently transferred
